# Reference: patent US11814367B2, “Inhibitors of glycogen synthase 1 (GYS1) and methods of use thereof” (Maze Therapeutics, Inc., priority 2021, dated 2023)
# Molecular target: hGYS1 enzyme (recombinant hGYS1/GN1 protein) (Homo sapiens (Human), UniProt P13807)
# Assay: GYS1 coupled enzyme assay (PK/LDH)
# Format: biochemical
# Conditions: hGYS1/GN1 50 nM, UDP-Glucose 0.8 mM, G6P 1 mM; geometric mean of at least 2 runs
# Text: The GYS1 coupled enzyme assay is a kinetic biochemical assay that indirectly quantifies the rate of glycogen synthesis by coupling the conversion of GYS1 substrate UDP-glucose into UDP with downstream enzymatic reactions. UDP is released from UDP-glucose as glucose monomers are linked into the growing glycogen strand by GYS1. The coupled assay then proceeds with pyruvate kinase utilizing UDP and phospho(enol)pyruvate (PEP) to form pyruvate. Lactate dehydrogenase then converts pyruvate and NADH into lactate and NAD+. Oxidation of NADH to NAD+ can be measured continuously with a plate reader by quantifying the decrease in NADH absorbance at 340 nm over time.
# Compounds that inhibit the hGYS1 enzyme and, subsequently, the downstream conversion of NADH to NAD+, were tested using assay ready plates (black, clear bottom 384 well plates) in a final DMSO reaction volume of 2.5% DMSO. The Assay Buffer contained 50 mM Tris pH 7.5, 2 mM MgCl2, and 100 mM KCl. Fresh stocks of BSA at a final concentration of 0.02% and TCEP at 1 mM were added before splitting buffer into hGYS1 buffer and substrate buffer. To the hGYS1 buffer, rabbit liver glycogen was added at a final concentration of 0.2% glycogen. Glucose-6-Phosphate was added at 1 mM, recombinant hGYS1/GN1 protein was added at 50 nM to the substrate buffer, phosphoenolpyruvate (PEP) was added at 2 mM, UDP-Glucose was added at 0.8 mM, NADH) was added at 0.6 mM, and Pyruvate Kinase/Lactate Dehydrogenase was added at 20 units/mL. The reaction was initiated by mixing hGYS1 buffer and substrate buffer at a 1:1 ratio. Both buffers were plated using a liquid dispensing device with hGYS1 buffer plated first followed by the substrate buffer. Plates were spun briefly to eliminate air bubbles and are immediately read in continuous mode at an absorbance of 340 nm, for 10 time points in one-minute increments, for a total of 10 minutes. The slope from these 10 time points was normalized to the positive and negative control wells. The duplicate % inhibition values are then averaged and fit to a Hill equation for dose response according to the Levenberg-Marquardt algorithm with the Hill equation maximum set to 100 and the minimum set to 0.
# Unless otherwise specified, IC50 values are reported as the geometric mean of at least 2 assay runs on separate days. Each run represents the average of a technical replicate, where each compound was assayed twice in the same plate. […] A superscript “#” symbol in Table 2 indicates results from a single assay run.
# Sequence of hGYS1 enzyme (recombinant hGYS1/GN1 protein) (P13807 whole entry): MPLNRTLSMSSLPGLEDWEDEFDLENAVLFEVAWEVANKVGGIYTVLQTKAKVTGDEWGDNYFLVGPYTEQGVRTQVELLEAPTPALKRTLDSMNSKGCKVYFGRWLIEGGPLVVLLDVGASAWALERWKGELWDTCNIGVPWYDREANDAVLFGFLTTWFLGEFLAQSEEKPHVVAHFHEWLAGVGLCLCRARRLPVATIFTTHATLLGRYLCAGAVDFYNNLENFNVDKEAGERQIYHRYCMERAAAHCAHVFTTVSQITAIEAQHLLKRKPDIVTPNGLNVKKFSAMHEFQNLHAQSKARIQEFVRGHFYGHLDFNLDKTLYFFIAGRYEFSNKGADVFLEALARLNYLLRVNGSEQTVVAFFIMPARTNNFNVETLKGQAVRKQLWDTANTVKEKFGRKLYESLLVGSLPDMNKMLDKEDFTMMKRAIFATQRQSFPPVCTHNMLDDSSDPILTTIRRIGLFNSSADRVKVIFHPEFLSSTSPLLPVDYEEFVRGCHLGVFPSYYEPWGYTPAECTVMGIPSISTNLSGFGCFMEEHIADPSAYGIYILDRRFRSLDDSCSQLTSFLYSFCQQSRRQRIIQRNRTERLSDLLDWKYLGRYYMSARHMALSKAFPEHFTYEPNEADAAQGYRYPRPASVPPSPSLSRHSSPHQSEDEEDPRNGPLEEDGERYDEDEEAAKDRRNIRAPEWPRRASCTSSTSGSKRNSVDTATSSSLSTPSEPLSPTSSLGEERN
# Sequence of hGYS1 enzyme (recombinant hGYS1/GN1 protein) (P46976 whole entry partner): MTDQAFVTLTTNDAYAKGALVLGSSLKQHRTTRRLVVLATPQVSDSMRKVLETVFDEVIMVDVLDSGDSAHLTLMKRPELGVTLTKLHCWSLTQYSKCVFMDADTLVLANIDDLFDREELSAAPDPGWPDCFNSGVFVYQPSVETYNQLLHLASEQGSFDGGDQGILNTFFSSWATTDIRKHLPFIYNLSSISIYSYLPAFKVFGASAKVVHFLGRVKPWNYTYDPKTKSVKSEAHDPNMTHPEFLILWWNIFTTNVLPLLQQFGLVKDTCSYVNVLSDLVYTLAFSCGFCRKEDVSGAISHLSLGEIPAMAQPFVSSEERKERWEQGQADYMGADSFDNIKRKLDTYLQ
row,IC50,Compound
1,415 nM,"CC(C)c1ccc([C@@H](NC(=O)[C@@H]2C[C@@H](F)CN2C(=O)c2cnco2)c2ccccc2)cc1 [Compound 12, (2S,4R)-4-fluoro-1-(1,3-oxazole-5-carbonyl)-N-[(S)-phenyl[4-(propan-2-yl)phenyl]methyl]pyrrolidine-2-carboxamide]"
2,47 nM,"CC(C)c1ccc([C@@H](NC(=O)[C@@H]2C[C@@H](F)CN2C(=O)Cc2cc[nH]n2)c2ccccc2)cc1 [Compound 19, (2S,4R)-4-fluoro-N-[(S)-phenyl[4-(propan-2-yl)phenyl]methyl]-1-[2-(1H-pyrazol-5-yl)acetyl]pyrrolidine-2-carboxamide]"
3,46 nM,"CC(C)c1ccc([C@@H](NC(=O)[C@@H]2C[C@@H](F)CN2C(=O)Cn2cc(Cl)cn2)c2ccccc2)cc1 [Compound 20, (2S,4R)-1-[2-(4-chloro-1H-pyrazol-1-yl)acetyl]-4-fluoro-N-[(S)-phenyl[4-(propan-2-yl)phenyl]methyl]pyrrolidine-2-carboxamide]"
4,947 nM,"Cc1ncncc1C(=O)N1C[C@H](F)C[C@H]1C(=O)N[C@@H](c1ccccc1)c1ccc(C(C)C)cc1 [Compound 30, (2S,4R)-4-fluoro-1-(4-methylpyrimidine-5-carbonyl)-N-[(S)-phenyl[4-(propan-2-yl)phenyl]methyl]pyrrolidine-2-carboxamide]"
5,50 nM,"CC(C)c1ccc([C@@H](NC(=O)[C@@H]2C[C@@H](F)CN2C(=O)Cc2ccncc2)c2ccccc2)cc1 [Compound 39, (2S,4R)-4-fluoro-N-[(S)-phenyl[4-(propan-2-yl)phenyl]methyl]-1-[2-(pyridin-4-yl)acetyl]pyrrolidine-2-carboxamide]"
6,495 nM,"CCc1nc(C(=O)N2C[C@H](F)C[C@H]2C(=O)N[C@@H](c2ccccc2)c2ccc(C(C)C)cc2)co1 [Compound 42, (2S,4R)-1-(2-ethyl-1,3-oxazole-4-carbonyl)-4-fluoro-N-[(S)-phenyl[4-(propan-2-yl)phenyl]methyl]pyrrolidine-2-carboxamide]"
7,91 nM,"CC(C)c1ccc([C@@H](NC(=O)[C@@H]2C[C@@H](F)CN2C(=O)C(C)n2cccn2)c2ccccc2)cc1 (stereo partly drawn) [Compound 43, (2S,4R)-4-fluoro-N-[(S)-phenyl[4-(propan-2-yl)phenyl]methyl]-1-[2-(1H-pyrazol-1-yl)propanoyl]pyrrolidine-2-carboxamide]"
8,58 nM,"CC(C)c1ccc([C@@H](NC(=O)[C@@H]2C[C@@H](F)CN2C(=O)CCc2cnc[nH]2)c2ccccc2)cc1 [Compound 45, (2S,4R)-4-fluoro-1-[3-(1H-imidazol-5-yl)propanoyl]-N-[(S)-phenyl[4-(propan-2-yl)phenyl]methyl]pyrrolidine-2-carboxamide]"
9,138 nM,"CC(C)c1ccc([C@@H](NC(=O)[C@@H]2C[C@@H](F)CN2C(=O)CCc2ncc[nH]2)c2ccccc2)cc1 [Compound 47, (2S,4R)-4-fluoro-1-[3-(1H-imidazol-2-yl)propanoyl]-N-[(S)-phenyl[4-(propan-2-yl)phenyl]methyl]pyrrolidine-2-carboxamide]"
10,789 nM,"CCn1nccc1C(=O)N1C[C@H](F)C[C@H]1C(=O)N[C@@H](c1ccccc1)c1ccc(C(C)C)cc1 [Compound 53, (2S,4R)-1-(1-ethyl-1H-pyrazole-5-carbonyl)-4-fluoro-N-[(S)-phenyl[4-(propan-2-yl)phenyl]methyl]pyrrolidine-2-carboxamide]"
11,47 nM,"Cc1cc(CC(=O)N2C[C@H](F)C[C@H]2C(=O)N[C@@H](c2ccccc2)c2ccc(C(C)C)cc2)[nH]n1 [Compound 54, (2S,4R)-4-fluoro-1-[2-(3-methyl-1H-pyrazol-5-yl)acetyl]-N-[(S)-phenyl[4-(propan-2-yl)phenyl]methyl]pyrrolidine-2-carboxamide]"
12,82 nM,"CC(C)c1ccc([C@@H](NC(=O)[C@@H]2C[C@@H](F)CN2C(=O)CCc2cccnc2)c2ccccc2)cc1 [Compound 66, (2S,4R)-4-fluoro-N-[(S)-phenyl[4-(propan-2-yl)phenyl]methyl]-1-[3-(pyridin-3-yl)propanoyl]pyrrolidine-2-carboxamide]"
13,375 nM,"CC(=O)N(C)C(C)C(=O)N1C[C@H](F)C[C@H]1C(=O)N[C@@H](c1ccccc1)c1ccc(C(C)C)cc1 (stereo partly drawn) [Compound 71, (2S,4R)-4-fluoro-1-[2-(N-methylacetamido)propanoyl]-N-[(S)-phenyl[4-(propan-2-yl)phenyl]methyl]pyrrolidine-2-carboxamide]"
14,472 nM,"CC(=O)Nc1cc(C(=O)N2C[C@H](F)C[C@H]2C(=O)N[C@@H](c2ccccc2)c2ccc(C(C)C)cc2)ccn1 [Compound 72, (2S,4R)-1-(2-acetamidopyridine-4-carbonyl)-4-fluoro-N-[(S)-phenyl[4-(propan-2-yl)phenyl]methyl]pyrrolidine-2-carboxamide]"
15,705 nM,"CC(C)c1ccc([C@@H](NC(=O)[C@@H]2C[C@@H](F)CN2C(=O)c2cccn3c(=O)[nH]nc23)c2ccccc2)cc1 [Compound 74, (2S,4R)-4-fluoro-1-{3-oxo-2H,3H-[1,2,4]triazolo[4,3-a]pyridine-8-carbonyl}-N-[(S)-phenyl[4-(propan-2-yl)phenyl]methyl]pyrrolidine-2-carboxamide]"
16,953 nM,"CC(C)c1ccc([C@@H](NC(=O)[C@@H]2C[C@@H](F)CN2C(=O)c2cc(-c3ccncc3)[nH]n2)c2ccccc2)cc1 [Compound 78, (2S,4R)-4-fluoro-N-[(S)-phenyl[4-(propan-2-yl)phenyl]methyl]-1-[5-(pyridin-4-yl)-1H-pyrazole-3-carbonyl]pyrrolidine-2-carboxamide]"
17,313 nM,"CC(Cn1ccnc1)C(=O)N1C[C@H](F)C[C@H]1C(=O)N[C@@H](c1ccccc1)c1ccc(C(C)C)cc1 (stereo partly drawn) [Compound 79, (2S,4R)-4-fluoro-1-[3-(1H-imidazol-1-yl)-2-methylpropanoyl]-N-[(S)-phenyl[4-(propan-2-yl)phenyl]methyl]pyrrolidine-2-carboxamide]"
18,318 nM,"CC(Cn1cccn1)C(=O)N1C[C@H](F)C[C@H]1C(=O)N[C@@H](c1ccccc1)c1ccc(C(C)C)cc1 (stereo partly drawn) [Compound 80, (2S,4R)-4-fluoro-1-[2-methyl-3-(1H-pyrazol-1-yl)propanoyl]-N-[(S)-phenyl[4-(propan-2-yl)phenyl]methyl]pyrrolidine-2-carboxamide]"
19,504 nM,"COCc1oncc1C(=O)N1C[C@H](F)C[C@H]1C(=O)N[C@@H](c1ccccc1)c1ccc(C(C)C)cc1 [Compound 82, (2S,4R)-4-fluoro-1-[5-(methoxymethyl)-1,2-oxazole-4-carbonyl]-N-[(S)-phenyl[4-(propan-2-yl)phenyl]methyl]pyrrolidine-2-carboxamide]"
20,439 nM,"CC(C)c1ccc([C@@H](NC(=O)[C@@H]2C[C@@H](F)CN2C(=O)C(C)(C)c2ccccn2)c2ccccc2)cc1 [Compound 92, (2S,4R)-4-fluoro-1-[2-methyl-2-(pyridin-2-yl)propanoyl]-N-[(S)-phenyl[4-(propan-2-yl)phenyl]methyl]pyrrolidine-2-carboxamide]"
21,712 nM,"CC(C)c1ccc([C@@H](NC(=O)[C@@H]2C[C@@H](F)CN2C(=O)c2ccc3c(c2)NC(=O)CC3)c2ccccc2)cc1 [Compound 97, (2S,4R)-4-fluoro-1-(2-oxo-1,2,3,4-tetrahydroquinoline-7-carbonyl)-N-[(S)-phenyl[4-(propan-2-yl)phenyl]methyl]pyrrolidine-2-carboxamide]"
22,1080 nM,"CC(C)CNC(=O)C(=O)N1C[C@H](F)C[C@H]1C(=O)N[C@@H](c1ccccc1)c1ccc(C(C)C)cc1 [Compound 111, (2S,4R)-4-fluoro-1-{[(2-methylpropyl)carbamoyl]carbonyl}-N-[(S)-phenyl[4-(propan-2-yl)phenyl]methyl]pyrrolidine-2-carboxamide]"
23,854 nM,"CC(=O)N1CC(Oc2ccc(C(=O)N3C[C@H](F)C[C@H]3C(=O)N[C@@H](c3ccccc3)c3ccc(C(C)C)cc3)cc2)C1 [Compound 112, (2S,4R)-1-{4-[(1-acetylazetidin-3-yl)oxy]benzoyl}-4-fluoro-N-[(S)-phenyl[4-(propan-2-yl)phenyl]methyl]pyrrolidine-2-carboxamide]"
24,1040 nM,"CC(C)c1ccc([C@@H](NC(=O)[C@@H]2C[C@@H](F)CN2C(=O)C(=O)C2CC2)c2ccccc2)cc1 [Compound 113, (2S,4R)-1-(2-cyclopropyl-2-oxoacetyl)-4-fluoro-N-[(S)-phenyl[4-(propan-2-yl)phenyl]methyl]pyrrolidine-2-carboxamide]"
25,493 nM,"CC(C)c1ccc([C@@H](NC(=O)[C@@H]2C[C@@H](F)CN2C(=O)C(=O)N(C)C)c2ccccc2)cc1 [Compound 115, (2S,4R)-1-[(dimethylcarbamoyl)carbonyl]-4-fluoro-N-[(S)-phenyl[4-(propan-2-yl)phenyl]methyl]pyrrolidine-2-carboxamide]"
